Results from patent EP0658547B1, “N-pyrazolyl carbamate derivative, agricultural/horticultural fungicide containing the same as active ingredient and production intermediate thereof” (MITSUBISHI CHEMICAL CORPORATION, priority 1993, dated 1995).

What was measured:
Erysiphe graminis = assay: Preventive activity on wheat powdery mildew (foliar application, spray inoculation); assay type: in vivo; conditions: 200 ppm active ingredient, wettable powder, foliar application on wheat plants (var. Norin No. 61), 7 to 10 days after inoculation
Experimental: Test Example 1 Preventive activity on wheat powdery mildow
Wettable powders prepared according to the same manner as that described in Formulation Example 1 were diluted with water to the predetermined concentration and then applied by foliar application on wheat plants (var. Norin No. 61) at the 1 to 2 leaf stage grown in pots of 6 cm in diameter at a ratio of 10 ml per one pot. After the chemical solution was air-dried, a spore suspension obtained from the leaf of wheat infected with Erysiphe graminis was spray-inoculated. After inoculation, the seedling of wheat was allowed to stand at room temperature for 7 to 10 days.
For evaluation, the diseased area ratio of each leaf was measured and the preventive value was calculated from the following equation: The preventive value (%) = (average diseased area ratio in untreated plot) (- (average diseased area ratio in treated plot))/((average diseased area ratio in untreated plot))x 100 [formula]
The test compound No. cited in the Table 2 corresponds to the compound No. of Table 1.

Puccinia recondita = assay: Preventive activity on wheat brown rust (foliar application, spray inoculation); assay type: in vivo; conditions: 200 ppm active ingredient, wettable powder, foliar application on wheat plants (var. Norin No. 61), moist chamber 22°C 15 hours, then 7 days
Experimental: Test Example 2 Preventive activity on wheat brown Wettable powders prepared according to the same manner as that described in Formulation Example 1 were diluted with water to the predetermined concentration and then applied by foliar application on wheat plants (var. Norin No. 61) at the 1 to 2 leaf stage grown in pots of 6 cm in diameter at a ratio of 10 ml per one pot. After the chemical solution was air-dried, a spore suspension obtained by pulverizing the leaf of wheat infected with Puccinia recondita was spray-inoculated. After inoculation, the wheat seedling was maintained in a moist chamber at 22°C for 15 hours and was allowed to stand on a water tank in a green house for 7 days. For evaluation, the diseased area ratio of each leaf was measured and the preventive value was calculated from the following equation: The preventive value (%) = (average diseased area ratio in untreated plot) (- (average diseased area ratio in treated plot))/((average diseased area ratio in untreated plot))x 100 [formula]

| SMILES | Preventive value 1 (%) (Erysiphe graminis) | Preventive value 2 (%) (Puccinia recondita) |
| --- | --- | --- |
| C#CCN(C(=O)OC)c1c(CON=C(C)c2ccc(C(F)(F)F)cc2)c(C)nn1C [compound No. 169, methyl N-[1,3-dimethyl-4-{(α-methyl-4-trifluoromethyl-benzylidene)aminooxymethylpyrazole-5-yl}]-N-propargyl-carbamate] | 100 | 100 |
| COC(=O)Nc1c(OCc2cc(C)ccc2C)c(C)nn1C [compound No. 48, methyl N-{1,3-dimethyl-4-(2,5-dimethylbenzyloxy)pyrazole-5-yl} carbamate] | 93 | 86 |
| C#CCN(C(=O)OC)c1c(OCc2cc(C)ccc2C)c(C)nn1C [compound No. 50, methyl N-{1,3-dimethyl-4-(2,5-dimethylbenzyloxy)pyrazole-5-yl}-N-propargyl-carbamate] | 100 | 100 |
